# Target: T1, human TLR7 (Homo sapiens, UniProt Q9NYK1)
# T1 construct: host or cells: HEK293 (HEK-Blue hTLR7)
# T1 sequence (Q9NYK1 27-1049): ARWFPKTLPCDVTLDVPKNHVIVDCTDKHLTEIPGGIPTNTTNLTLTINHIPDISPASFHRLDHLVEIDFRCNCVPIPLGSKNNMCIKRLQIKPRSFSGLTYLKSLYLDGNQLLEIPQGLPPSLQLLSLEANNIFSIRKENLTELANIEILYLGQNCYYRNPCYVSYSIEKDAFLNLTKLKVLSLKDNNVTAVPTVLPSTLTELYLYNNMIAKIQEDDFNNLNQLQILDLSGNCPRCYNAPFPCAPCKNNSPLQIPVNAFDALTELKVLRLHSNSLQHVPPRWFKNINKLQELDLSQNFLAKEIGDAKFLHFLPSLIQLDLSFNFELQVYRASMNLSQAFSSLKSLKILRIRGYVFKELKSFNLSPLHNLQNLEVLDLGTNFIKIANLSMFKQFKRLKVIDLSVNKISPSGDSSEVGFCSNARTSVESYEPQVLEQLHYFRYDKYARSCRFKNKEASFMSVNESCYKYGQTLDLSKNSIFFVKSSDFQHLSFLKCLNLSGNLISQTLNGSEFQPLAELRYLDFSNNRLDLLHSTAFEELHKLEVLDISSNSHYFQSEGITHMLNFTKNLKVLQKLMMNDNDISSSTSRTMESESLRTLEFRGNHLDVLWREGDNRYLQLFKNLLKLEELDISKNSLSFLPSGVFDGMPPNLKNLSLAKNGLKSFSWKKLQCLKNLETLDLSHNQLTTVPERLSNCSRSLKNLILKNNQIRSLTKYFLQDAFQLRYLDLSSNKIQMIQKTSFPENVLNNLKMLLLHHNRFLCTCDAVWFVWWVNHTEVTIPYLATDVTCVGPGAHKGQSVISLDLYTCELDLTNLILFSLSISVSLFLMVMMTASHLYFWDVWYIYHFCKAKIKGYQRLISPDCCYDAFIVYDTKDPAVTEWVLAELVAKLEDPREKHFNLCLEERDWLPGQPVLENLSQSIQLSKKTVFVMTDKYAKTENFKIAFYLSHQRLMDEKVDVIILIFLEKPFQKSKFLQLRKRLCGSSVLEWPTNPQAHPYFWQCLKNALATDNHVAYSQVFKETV
# Assay: HEK293-Blue hTLR7 Reporter Assay (QUANTI-BLUE, SEAP readout)
# Assay type: cell-based
# Details: HEK-Blue-hTLR7 cells, 24 hrs treatment, Table 1, B1-B232
# Method: HEK293-Blue hTLR7 Reporter Assay: HEK-Blue-hTLR7 cell line (Invivogen, Cat. No. hkb-htlr7) was designed so that the expression of the secreted embryonic alkaline phosphatase (SEAP) was induced by activating NF-κ and AP-1 via stimulating human TLR7 with TLR7 agonists. HEK-Blue-hTLR7 cells were seeded at a density of 4×10^4 cells/well in a volume of 180 μL in a 96-well plate in DMEM (Cat. No. 11965-092) supplemented with 10% (v/v) heat-inactivated fetal bovine serum (FBS) (Gibco, 10099-1441), 100 U/ml penicillin and 100 μg/ml streptomycin (Gibco, 15140122) containing 50 U/mL penicillin, […] and 10% (v/v) heat-inactivated fetal bovine serum. The cells were settled for 5 hrs, then treated with increasing amounts of tested compounds at 37° C. for 24 hrs. Then 20 μL of the supernatant from each well was incubated with 180 μL Quanti-blue substrate solution at 37° C. for 10-30 mins before the activity of the SEAP was determined at 620-655 nm using a spectrophotometer. The EC50 value for each compound was calculated with GraphPad Prism software using the sigmoidal dose-response function.
row,Compound,EC50 [nM]
1,"CCCCOc1nc(N)c2ncc(Cc3ccc(C4CCNCC4)nc3)n2n1 [Compound B19, 2-butoxy-7-((6-(piperidin-4-yl)pyridin-3-yl)methyl)imidazo[2,1-f][1,2,4]triazin-4-amine]",227
2,"CCCCOc1nc(N)c2ncc(Cc3ccc(C4CCCNC4)cc3)n2n1 (stereo not drawn) [Compound B20, 2-butoxy-7-(4-(piperidin-3-yl)benzyl)imidazo[2,1-f][1,2,4]triazin-4-amine]",7990
3,"Cc1cc(Cc2cnc3c(N)nc(OCCC(C)C)nn23)cnc1N1CCNCC1 [Compound B22, 2-(isopentyloxy)-7-((5-methyl-6-(piperazin-1-yl)pyridin-3-yl)methyl)imidazo[2,1-f][1,2,4]triazin-4-amine]",496
4,"CCCCCOc1nc(N)c2ncc(Cc3cnc(N4CCNCC4)c(C)c3)n2n1 [Compound B23, 7-((5-methyl-6-(piperazin-1-yl)pyridin-3-yl)methyl)-2-(pentyloxy)imidazo[2,1-f][1,2,4]triazin-4-amine]",487
5,"CCCCOc1nc(N)c2ncc(Cc3cnc(N4CCN(C(=O)CN)CC4)c(C)c3)n2n1 [Compound B24, 2-amino-1-(4-(5-((4-amino-2-butoxyimidazo[2,1-f][1,2,4]triazin-7-yl)methyl)-3-methylpyridin-2-yl)piperazin-1-yl)ethan-1-one]",210
6,"Cc1cc(Cc2cnc3c(N)nc(OCCOc4ccccc4)nn23)cnc1N1CCNCC1 [Compound B25, 7-((5-methyl-6-(piperazin-1-yl)pyridin-3-yl)methyl)-2-(2-phenoxyethoxy)imidazo[2,1-f][1,2,4]triazin-4-amine]",> 10000
7,"CCCCOc1nc(N)c2ncc(Cc3ccc(N4CCNCC4)c(OCC)c3)n2n1 [Compound B26, 2-butoxy-7-(3-ethoxy-4-(piperazin-1-yl)benzyl)imidazo[2,1-f][1,2,4]triazin-4-amine]",295
8,"CCCCOc1nc(N)c2ncc(Cc3ccc(N4CCNCC4)c(OC(F)(F)F)c3)n2n1 [Compound B27, 2-butoxy-7-(4-(piperazin-1-yl)-3-(trifluoromethoxy)benzyl)imidazo[2,1-f][1,2,4]triazin-4-amine]",971
9,"Cc1cc(Cc2cnc3c(N)nc(O)nn23)cnc1N1CCNCC1 [Compound B29, 4-amino-7-((5-methyl-6-(piperazin-1-yl)pyridin-3-yl)methyl)imidazo[2,1-f][1,2,4]triazin-2-ol]",> 10000
10,"Cc1cc(Cc2cnc3c(N)nc(OCCc4ccccc4)nn23)cnc1N1CCNCC1 [Compound B30, 7-((5-methyl-6-(piperazin-1-yl)pyridin-3-yl)methyl)-2-phenethoxyimidazo[2,1-f][1,2,4]triazin-4-amine]",> 10000
11,"Cc1cc(Cc2cnc3c(N)nc(OCCCc4ccccc4)nn23)cnc1N1CCNCC1 [Compound B31, 7-((5-methyl-6-(piperazin-1-yl)pyridin-3-yl)methyl)-2-(3-phenylpropoxy)imidazo[2,1-f][1,2,4]triazin-4-amine]",> 10000
12,"CCCCOc1nc(N)c2ncc(Cc3cnc(N4CCN(C(=O)CNC)CC4)c(C)c3)n2n1 [Compound B32, 1-(4-(5-((4-amino-2-butoxyimidazo[2,1-f][1,2,4]triazin-7-yl)methyl)-3-methylpyridin-2-yl)piperazin-1-yl)-2-(methylamino)ethan-1-one]",66
13,"CCCCOc1nc(N)c2ncc(Cc3cc(C)c(N4CCNCC4)cn3)n2n1 [Compound B33, 2-butoxy-7-((4-methyl-5-(piperazin-1-yl)pyridin-2-yl)methyl)imidazo[2,1-f][1,2,4]triazin-4-amine]",218
14,"CCCCOc1nc(N)c2ncc(Cc3cnc(N4CCCCC4)c(C)c3)n2n1 [Compound B34, 2-butoxy-7-((5-methyl-6-(piperidin-1-yl)pyridin-3-yl)methyl)imidazo[2,1-f][1,2,4]triazin-4-amine]",> 10000
15,"CCCCOc1nc(N)c2ncc(Cc3cnc(N4CCCCCC4)c(C)c3)n2n1 [Compound B35, 7-((6-(azepan-1-yl)-5-methylpyridin-3-yl)methyl)-2-butoxyimidazo[2,1-f][1,2,4]triazin-4-amine]",> 10000
